System: S. aureus (Gram-positive bacterium) ATCC 6538
Assay: Fluorescence detection of microcolonies on membrane after permeabilization and 5/6-CFDA labeling
Type: cell-based
Conditions: agent used alone
Experimental: The tested strains of E. coli (Gram-negative bacterium) ATCC 8739 and of S. aureus (Gram-positive bacterium) ATCC 6538 or B. subtilis (Gram-positive bacterium) ATCC 6633 were preserved in cryotubes (Dutscher, ref. 028049) frozen at −80° C. prepared from freeze-dried strains obtained from collections.
For all the tests, the bacteria strains are diluted in tubes of peptone water (Biomérieux, ref. 42111). A cascade dilution is performed by adding 1 ml of the cryotube of the strain used to 9 ml of the tube of peptone water until the desired dilution is obtained. The concentration was adjusted in order to obtain on average 30 bacteria per sample. This concentration was verified on a Petri dish by a conventional count test on agar medium. […]
A universal fluorogenic marker, namely 5/6-carboxyfluorescein diacetate (CFDA) (Sigma 21879-100MG) diluted in DMSO, is added to the permeabilization compositions in order to reach a final concentration of 100 μg/ml. […] The membrane is then removed from the labeling solution and placed in an illuminator equipped with a camera in order to measure the fluorescence emitted between 520 and 530 nm.
The fluorescence intensity results summarized in Tables 1 to 3 below correspond to the light energy (luminescence) captured and recorded to the nearest pixel by the CCD camera using the Sherlock image analyzing software (Insosys Inc.). […]

## CCCCCCCCO[C@@H]1O[C@H](CO)[C@@H](O)[C@H](O)[C@H]1O [N-Octyl-β-D-glucopyranoside]
  Permeabilization of Gram-positive bacteria, in words: unsuitable

— patent US8097404B2, “Composition and method for cell permeabilization comprising N-octyl-β-D-glucopyranoside, sodium polyphosphates, rubidium chloride and/or lithium chloride for detecting living cells on a membrane” (Millipore Corporation, priority 2008, dated 2012)
